Test results as given in paper PMC12285096, “Tirzepatide mitigates Stroke-Induced Blood-Brain barrier disruption by modulating Claudin-1 and C/EBP-α pathways” (Molecular Medicine, 2025).

Legend:
Claudin-1 [1] = experiment: Claudin-1 expression in OGD/R-stimulated HBMVECs (real-time PCR, western blot); assay type: cell-based, human; settings: for Claudin-1 expressions (mRNA): sh-C/EBP-α experiment, Fig. 9D
Method: (§1) 1 mL of RNAiso Plus solution was added to the pulverized rodent cerebral cortex samples or cellular material. Following complete homogenization, the liquid fraction was extracted after high-speed centrifugation. The overall RNA pellet was then washed with 75% ethanol, and the RNA was subsequently harvested for reverse transcription. These specific procedures were carried out in accordance with the instructions provided in the PrimeScript RT reagent Kit (TaKaRa, Japan). Real-time PCR detection was performed following the experimental protocols of the Applied Biosystems 7300 instrument. Gene expression levels were determined based on cycle threshold counts. Claudin-1 and C/EBP-α were analyzed in brain homogenates (right hemisphere: Sham, MCAO, MCAO + TZP) and HBMVECs (Control, […] lysis solution, composed of 1% protease inhibitor in RIPA buffer (Sigma-Aldrich, R0278), was introduced to samples, which were homogenized over ice for 30 min. The homogenate was centrifuged at 13,500 rpm for 10 min at 4 °C. Protein was quantified using the BCA assay kit (Sigma-Aldrich, BCA1), and 50 μg protein/lane was separated on 10% SDS-PAGE and transferred to PVDF in electrophoresis buffer at 200 mA for 2 h. The membrane was blocked with 5% skim milk in TBST for 1 h. Primary antibodies were incubated overnight at 4 °C: Claudin-1 (1:1000, Abcam, ab15098), C/EBP-α (1:1000, Santa Cruz Biotechnology, sc-166258), and GAPDH (1:2000, Sigma-Aldrich, A5441). HRP-conjugated secondary antibodies (1:5000, Santa Cruz, sc-2357) were incubated for 1 h. Bands were detected via ECL (Bio-Rad, 1705061), quantified with ImageJ, and normalized to GAPDH. HBMVECs were sourced from ATCC (USA). These cells were cultivated in a medium specifically designed for endothelial cultures, enriched with 10% FBS, and maintained in an incubator set at a temperature of 37 °C with 5% CO2. For OGD/R modeling, the culture medium was replaced with a serum-free, glucose-free medium, and then it was placed in a hypoxic environment (1% O2, 5% CO2, 94% N2) at a 37 °C incubator for 10 h. […]

Claudin-1 [2] = experiment: Claudin-1 expression in mouse cortex (RT-PCR, immunostaining); assay type: in vivo; settings: for Claudin-1 levels (mRNA): C/EBP-α experiment, Fig. 5C; for Claudin-1 expressions in cortex tissue (mRNA, protein by immunostaining): Fig. 3A, B
Method: Mouse brain cortex samples were traditionally fixed in a 10% formaldehyde solution, embedded in paraffin, sectioned, and then dehydrated. Endogenous peroxidase activity was quenched by incubating the sections with a 3% hydrogen peroxide solution for 30 min. Antigen retrieval was carried out using ethylenediaminetetraacetic acid (EDTA) under pressure. After sealing for 30 min, slides were incubated overnight at 4 °C with primary antibodies specific for Claudin-1 (Abcam, USA), diluted at a ratio of 1:400. This incubation period was extended to ensure thorough binding. Subsequently, the slides were washed and incubated with secondary antibodies (1:400, Abcam, USA) for 15 min. Finally, the slides were developed using a DAB chromogenic substrate system, counterstained with hematoxylin, differentiated with an ethanol solution containing hydrochloric acid, subjected to a bluing step with running tap water, rinsed with deionized water, dehydrated, and covered with a protective cover slip. Visual documentation was obtained using a microscope (Zeiss, Germany). 1 mL of RNAiso Plus solution was added to the pulverized rodent cerebral cortex samples or cellular material. Following complete homogenization, the liquid fraction was extracted after high-speed centrifugation. The overall RNA pellet was then washed with 75% ethanol, and the RNA was subsequently harvested for reverse transcription. These specific procedures were carried out in accordance with the instructions provided in the PrimeScript RT reagent Kit (TaKaRa, Japan). Real-time PCR detection was performed following the experimental protocols of the Applied Biosystems 7300 instrument. Gene expression levels were determined based on cycle threshold counts.

HBMVECs = experiment: FITC-dextran permeation across OGD/R-challenged HBMVECs; assay type: cell-based, human
Method: HBMVECs were sourced from ATCC (USA). These cells were cultivated in a medium specifically designed for endothelial cultures, enriched with 10% FBS, and maintained in an incubator set at a temperature of 37 °C with 5% CO2. For OGD/R modeling, the culture medium was replaced with a serum-free, glucose-free medium, and then it was placed in a hypoxic environment (1% O2, 5% CO2, 94% N2) at a 37 °C incubator for 10 h. After 10 h, the normal medium containing serum was added, and the normal oxygen supply was restored. The cells were then kept in a 37 °C constant temperature incubator for 24 h of reoxygenation. To silence C/EBP-α, HBMVECs were transduced with adenovirus harboring a short hairpin RNA (shRNA) specifically designed to knock down C/EBP-α (Ad-viral sh-C/EBP-α) for 48 h. A serum-free medium was used to dilute FITC-dextran to various concentrations for the establishment of a calibration curve. Subsequently, HBMVECs were cultured in the upper section of the Transwell setup. Thereafter, 100 µL of a 1 mg/mL FITC-conjugated dextran solution was added to the upper section and allowed to rest for 1 h in a shielded environment at 37 °C with 5% CO2. Post incubation, 100 µL of fluid was drawn from the lower section, and the luminescence intensity of the fluid in the lower section was quantified using a luminescence photometer (494/520 nm). Regarding the calibration curve and the observed luminescence intensity, the permeation level of FITC-dextran across the Transwell chamber was computed (µg/mL).

MCAO mice [3] = experiment: Behavioral toxicity observation in the MCAO model; settings: TZP 10 nmol/kg i.p. weekly
C/EBP-α = C/EBP-α expression in OGD/R-stimulated HBMVECs (real-time PCR, western blot); assay type: cell-based, human; settings: OGD/R + 50 and 100 nM TZP vs. OGD/R, Fig. 8A, B
Method: as §1, with “Primary antibodies were incubated overnight at 4 °C: Claudin-1 (1:1000, Abcam, ab15098), C/EBP-α (1:1000, Santa Cruz Biotechnology, sc-166258), and GAPDH (1:2000, Sigma-Aldrich, A5441). HRP-conjugated secondary antibodies (1:5000, Santa Cruz, sc-2357) were incubated for 1 h.” left out, “GAPDH.” for “GAPDH. HBMVECs were sourced from ATCC (USA). These cells were cultivated in a medium specifically designed for endothelial cultures, enriched with 10% FBS, and maintained in an incubator set at a temperature of 37 °C with 5% CO2. For OGD/R modeling, the culture medium was replaced with a serum-free, glucose-free medium, and then it was placed in a hypoxic environment (1% O2, 5% CO2, 94% N2) at a 37 °C incubator for 10 h.”

MCAO mice [4] = experiment: TTC staining, infarct volume in MCAO mice; assay type: in vivo, mouse; settings: MCAO + TZP mice, 10 nmol/kg i.p., MCAO mice 38.5 ± 4.2%, mean ± SD, Fig. 1B

## CC[C@H](C)[C@H](NC(=O)[C@H](CC(C)C)NC(=O)[C@H](Cc1c[nH]c2ccccc12)NC(=O)[C@H](CCC(N)=O)NC(=O)[C@@H](NC(=O)[C@H](Cc1ccccc1)NC(=O)[C@H](C)NC(=O)[C@H](CCCCNC(=O)COCCOCCNC(=O)COCCOCCNC(=O)CC[C@H](NC(=O)CCCCCCCCCCCCCCCCCCC(=O)O)C(=O)O)NC(=O)[C@H](CCC(N)=O)NC(=O)[C@H](C)NC(=O)[C@@H](NC(=O)[C@H](CCCCN)NC(=O)[C@H](CC(=O)O)NC(=O)[C@H](CC(C)C)NC(=O)C(C)(C)NC(=O)[C@@H](NC(=O)[C@H](CO)NC(=O)[C@H](Cc1ccc(O)cc1)NC(=O)[C@H](CC(=O)O)NC(=O)[C@H](CO)NC(=O)[C@@H](NC(=O)[C@H](Cc1ccccc1)NC(=O)[C@@H](NC(=O)CNC(=O)[C@H](CCC(=O)O)NC(=O)C(C)(C)NC(=O)[C@@H](N)Cc1ccc(O)cc1)[C@@H](C)O)[C@@H](C)O)[C@@H](C)CC)[C@@H](C)CC)C(C)C)C(=O)N[C@@H](C)C(=O)NCC(=O)NCC(=O)N1CCC[C@H]1C(=O)N[C@@H](CO)C(=O)N[C@@H](CO)C(=O)NCC(=O)N[C@@H](C)C(=O)N1CCC[C@H]1C(=O)N1CCC[C@H]1C(=O)N1CCC[C@H]1C(=O)N[C@@H](CO)C(N)=O [TZP, Tirzepatide]
Claudin-1 [1]; OGD/R + 50 and 100 nM TZP vs. OGD/R, Fig. 7A, B
  Claudin-1 expressions (mRNA, protein): notably enhanced
Claudin-1 [1]; OGD/R + TZP (100 nM) vs. OGD/R
  Claudin-1 expressions (mRNA): remarkably elevated
Claudin-1 [1]; OGD/R + sh-C/EBP-α + TZP (100 nM) vs. OGD/R + TZP
  Claudin-1 expressions (mRNA): strikingly restrained
Claudin-1 [2]; MCAO + C/EBP-α-/- + TZP vs. MCAO + TZP
  Claudin-1 levels (mRNA): strikingly repressed
Claudin-1 [2]; MCAO + TZP WT mice vs. MCAO
  Claudin-1 levels (mRNA): sharply enhanced
Claudin-1 [2]; MCAO + TZP vs. MCAO (markedly diminished), 10 nmol/kg i.p. weekly, 8 weeks
  Claudin-1 expressions in cortex tissue (mRNA, protein by immunostaining): strikingly enhanced
Claudin-1 [2]; TZP group (sham-operated, 10 nmol/kg i.p. weekly, 8 weeks) vs. Sham
  Claudin-1 expressions in cortex tissue (mRNA, protein by immunostaining): remarkably enhanced
HBMVECs; OGD/R + 50 nM TZP, 24 h, control 0.41, OGD/R 1.15, Fig. 6A
  FITC concentrations in the lower chamber (FITC-dextran permeation): 0.83 mg/mL
HBMVECs; OGD/R + 100 nM TZP, 24 h, control 0.41, OGD/R 1.15, Fig. 6A
  FITC concentrations in the lower chamber (FITC-dextran permeation): 0.57 mg/mL
HBMVECs; sh-C/EBP-α experiment, OGD/R + TZP (100 nM), control 0.42, OGD/R 1.03, Fig. 9B
  FITC concentrations in the lower chamber (FITC-dextran permeation): 0.61 mg/mL
HBMVECs; sh-C/EBP-α experiment, OGD/R + sh-C/EBP-α + TZP (100 nM), control 0.42, OGD/R 1.03, Fig. 9B
  FITC concentrations in the lower chamber (FITC-dextran permeation): 0.93 mg/mL
MCAO mice [3]
  Behavioral toxicity: no overt behavioral toxicity
C/EBP-α
  C/EBP-α levels (mRNA, protein): largely promoted
MCAO mice [4]
  Infarct volume (% of the ipsilateral hemisphere): 18.7 ± 3.1%
